Reference: patent publication US20240270751A1, “Pyrazolopyridinone Compounds” (BeiGene Ltd., priority 2021, published 2024)

Tests used:
DGKζ = DGKζ (Homo sapiens (Human), UniProt Q13574); assay: Biochemical DGK IC50 assay, DGKζ ADP-Glo assay; conditions: 0.5 nM enzyme, 140 μM ATP, 80 μM DAG; read-out: DGKζ ADP-Glo assay IC50
How it was run: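 ADP formation measured by ADP-Glo luminescence, with test compounds at final 1.55–10000 nM or 23.3–150000 nM. Enzyme: purified full-length human DGKζ from Sf9 insect cells; substrate: DAG/PS micelles in 25 mM HEPES pH 7.0, 0.5 mM EDTA, octyl glucoside.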

DGKα = DGKα (Homo sapiens (Human), UniProt P23743); assay: Biochemical DGK IC50 assay, DGKα ADP-Glo assay; conditions: 7.5 nM enzyme, 140 μM ATP, 80 μM DAG
Chain of DGKα (P23743 whole entry): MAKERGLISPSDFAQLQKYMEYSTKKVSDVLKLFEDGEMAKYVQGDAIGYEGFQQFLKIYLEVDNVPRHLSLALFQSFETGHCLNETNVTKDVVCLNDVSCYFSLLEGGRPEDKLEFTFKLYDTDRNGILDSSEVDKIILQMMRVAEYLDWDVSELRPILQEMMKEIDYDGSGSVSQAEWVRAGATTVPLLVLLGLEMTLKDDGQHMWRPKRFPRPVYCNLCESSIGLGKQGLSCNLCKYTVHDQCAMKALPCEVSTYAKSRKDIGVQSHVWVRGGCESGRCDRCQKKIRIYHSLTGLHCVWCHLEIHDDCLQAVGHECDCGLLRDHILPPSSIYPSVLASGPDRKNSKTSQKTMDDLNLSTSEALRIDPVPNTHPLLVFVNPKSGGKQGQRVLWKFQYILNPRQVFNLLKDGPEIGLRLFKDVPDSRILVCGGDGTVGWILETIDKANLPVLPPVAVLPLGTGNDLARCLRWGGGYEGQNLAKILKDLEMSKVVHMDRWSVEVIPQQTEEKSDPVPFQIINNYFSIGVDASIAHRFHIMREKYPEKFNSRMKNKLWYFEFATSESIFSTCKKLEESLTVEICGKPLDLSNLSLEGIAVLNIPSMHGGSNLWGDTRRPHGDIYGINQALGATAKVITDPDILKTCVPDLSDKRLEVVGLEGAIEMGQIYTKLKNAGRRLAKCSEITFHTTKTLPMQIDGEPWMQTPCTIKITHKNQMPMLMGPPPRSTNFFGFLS
How it was run: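 Compounds at final 1.55˜10000 nM or 23.3˜150000 nM were tested against full-length DGKα. Substrate was lipid micelles of DAG and PS resuspended in 25 mM HEPES pH 7.0 with 0.5 mM EDTA and 160 mM octyl β-D-glucopyranoside. ADP formed was detected by ADP-Glo.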

Chain of DGKζ (Q13574 other isoform, or with tags, fused parts or gaps): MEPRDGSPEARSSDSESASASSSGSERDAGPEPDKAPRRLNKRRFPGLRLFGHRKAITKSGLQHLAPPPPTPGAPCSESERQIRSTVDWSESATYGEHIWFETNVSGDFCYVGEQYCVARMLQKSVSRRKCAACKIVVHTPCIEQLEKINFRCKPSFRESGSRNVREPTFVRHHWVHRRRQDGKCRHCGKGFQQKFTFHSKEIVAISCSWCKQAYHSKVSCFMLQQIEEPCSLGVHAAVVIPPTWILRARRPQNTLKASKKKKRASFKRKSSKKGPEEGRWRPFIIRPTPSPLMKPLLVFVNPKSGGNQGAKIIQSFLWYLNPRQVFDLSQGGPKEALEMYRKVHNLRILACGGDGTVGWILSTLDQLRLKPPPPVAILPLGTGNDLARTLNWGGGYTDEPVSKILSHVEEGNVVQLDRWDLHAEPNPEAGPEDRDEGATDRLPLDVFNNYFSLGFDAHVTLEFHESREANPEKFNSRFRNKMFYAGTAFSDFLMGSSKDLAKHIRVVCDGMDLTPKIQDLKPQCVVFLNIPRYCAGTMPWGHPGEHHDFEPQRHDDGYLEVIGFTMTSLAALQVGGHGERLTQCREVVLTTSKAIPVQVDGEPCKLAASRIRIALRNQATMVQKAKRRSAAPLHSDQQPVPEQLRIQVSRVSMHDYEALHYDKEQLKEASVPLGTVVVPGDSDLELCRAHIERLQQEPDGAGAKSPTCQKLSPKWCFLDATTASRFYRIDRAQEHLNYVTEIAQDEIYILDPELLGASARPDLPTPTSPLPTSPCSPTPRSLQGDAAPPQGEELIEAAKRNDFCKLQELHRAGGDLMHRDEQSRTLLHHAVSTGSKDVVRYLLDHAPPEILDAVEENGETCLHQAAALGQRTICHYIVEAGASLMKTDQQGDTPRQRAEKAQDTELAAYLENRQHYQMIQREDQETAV

SMILES: CC[C@H]1CN(C(C)c2nc3cccc(C(F)(F)F)c3n2CC)[C@H](CC)CN1c1cc(=O)n(C)c2cn(CC#N)nc12 (single isomer, unassigned) [Compound A230b]
- IC50 (DGKζ): 494 nM
- IC50 (DGKα): 6200 nM

SMILES: CC[C@H]1CN(C(C)c2cccnc2C(F)(F)F)[C@H](CC)CN1c1cc(=O)n(C)c2cn(CC#N)nc12 (stereo partly drawn) [Compound A217]
- IC50 (DGKζ): 378 nM
- IC50 (DGKα): > 10000 nM

SMILES: CC[C@H]1CN(C(C)c2ccc3c(n2)OCCN3C)[C@H](CC)CN1c1cc(=O)n(C)c2cn(CC#N)nc12 (stereo partly drawn) [Compound A166, 2-(7-((2S,5R)-2,5-diethyl-4-(1-(1-methyl-2,3-dihydro-1H-pyrido[2,3-b][1,4]oxazin-6-yl)ethyl)piperazin-1-yl)-4-methyl-5-oxo-4,5-dihydro-2H-pyrazolo[4,3-b]pyridin-2-yl)acetonitrile]
- IC50 (DGKζ): 2380 nM
- IC50 (DGKα): > 10000 nM

SMILES: CC(c1ccc2ncc(CO)nc2c1)N1C[C@H](C)N(c2cc(=O)n(C)c3cn(CC#N)nc23)C[C@H]1C (single isomer, unassigned) [Compound A309b]
- IC50 (DGKζ): 369 nM
- IC50 (DGKα): 87000 nM

SMILES: CC[C@@H]1CN(c2cc(=O)n(C)c3cn(CC#N)nc23)[C@@H](CC)CN1C(=O)c1cc2cnccc2cn1 [Compound A371]
- IC50 (DGKζ): > 10000 nM
- IC50 (DGKα): 717 nM

SMILES: CC[C@H]1CN(C(C)c2ccc(F)cc2C(F)(F)F)[C@H](CC)CN1c1cc(=O)[nH]c2cn(CC#N)nc12 (stereo partly drawn) [Compound A265, 2-(7-((2S,5R)-2,5-diethyl-4-(1-(4-fluoro-2-(trifluoromethyl)phenyl)ethyl)piperazin-1-yl)-5-oxo-4,5-dihydro-2H-pyrazolo[4,3-b]pyridin-2-yl)acetonitrile]
- IC50 (DGKζ): 736 nM
- IC50 (DGKα): > 10000 nM

SMILES: COC[C@@H]1CN(c2cc(=O)n(C)c3cn(CC#N)nc23)[C@@H](C)CN1C(C)c1ccc2nccnc2c1 (stereo partly drawn) [Compound A100, 2-(7-((2S,5S)-5-(methoxymethyl)-2-methyl-4-(1-(quinoxalin-6-yl)ethyl)piperazin-1-yl)-4-methyl-5-oxo-4,5-dihydro-2H-pyrazolo[4,3-b]pyridin-2-yl)acetonitrile]
- IC50 (DGKζ): 200 nM
- IC50 (DGKα): 3780 nM

SMILES: CC[C@H]1CN(C(C)c2cn(CC)c(C)n2)[C@H](CC)CN1c1cc(=O)n(C)c2cn(CC#N)nc12 (stereo partly drawn) [Compound A208]
- IC50 (DGKζ): > 10000 nM
- IC50 (DGKα): > 10000 nM

SMILES: CC(c1ccc2nccnc2c1)N1C[C@H](C)N(c2cc(=O)n(C)c3cn(C(=O)C4CC4)nc23)C[C@H]1C (stereo partly drawn) [Compound A15]
- IC50 (DGKζ): 34000 nM
- IC50 (DGKα): 5900 nM

SMILES: C[C@@H]1CN(c2cc(=O)n(C)c3cn(CC#N)nc23)[C@@H](C)CN1[C@@H](C)c1ccc2c(c1)OC(C)(C)CO2 [Compound A46b]
- IC50 (DGKζ): 21 nM
- IC50 (DGKα): 2570 nM

SMILES: CC[C@H]1CN(C(C)c2ccc(C(F)(F)F)cn2)[C@H](CC)CN1c1cc(=O)n(C)c2cn(CC#N)nc12 (single isomer, unassigned) [Compound A348a]
- IC50 (DGKζ): 3880 nM
- IC50 (DGKα): 177 nM

SMILES: CC(c1ccc2ncnn2c1)N1C[C@H](C)N(c2cc(=O)n(C)c3cn(CC#N)nc23)C[C@H]1C (stereo partly drawn) [Compound A34]
- IC50 (DGKζ): 5800 nM
- IC50 (DGKα): 8300 nM

SMILES: CC[C@H]1CN(C(C)c2ncc(F)cc2C(F)(F)F)[C@H](CC)CN1c1cc(=O)n(C)c2cn(CC#N)nc12 (stereo partly drawn) [Compound A136, 2-(7-((2S,5R)-2,5-diethyl-4-(1-(5-fluoro-3-(trifluoromethyl)pyridin-2-yl)ethyl)piperazin-1-yl)-4-methyl-5-oxo-4,5-dihydro-2H-pyrazolo[4,3-b]pyridin-2-yl)acetonitrile]
- IC50 (DGKζ): 317 nM
- IC50 (DGKα): 61900 nM

SMILES: Cc1cnc2ccc([C@H](C)N3C[C@H](C)N(c4cc(=O)n(C)c5cn(CC=C(F)F)nc45)C[C@H]3C)cc2n1 [Compound A303, 2-(3,3-difluoroallyl)-7-((2S,5R)-2,5-dimethyl-4-((S)-1-(3-methylquinoxalin-6-yl)ethyl)piperazin-1-yl)-4-methyl-2,4-dihydro-5H-pyrazolo[4,3-b]pyridin-5-one]
- IC50 (DGKζ): 19 nM
- IC50 (DGKα): 102000 nM

SMILES: CC[C@H]1CN(C(C)c2ccc(C(=O)N3CCC(F)(F)CC3)cc2)[C@H](CC)CN1c1cc(=O)n(C)c2cn(CC#N)nc12 (stereo partly drawn) [Compound A382]
- IC50 (DGKζ): 499 nM
- IC50 (DGKα): 79 nM

SMILES: CC[C@H]1CN(C(C)c2ccc(OC(F)F)nc2)[C@H](CC)CN1c1cc(=O)n(C)c2cn(CC#N)nc12 (single isomer, unassigned) [Compound A180a]
- IC50 (DGKζ): 15 nM
- IC50 (DGKα): 730 nM

SMILES: C[C@@H]1CN(c2cc(=O)n(C)c3c(C(F)(F)F)nn(CC#N)c23)[C@@H](C)CN1[C@@H](C)c1ccc2nccnc2c1 (single isomer, unassigned) [Compound A244, 2-(7-((2S,5R)-2,5-dimethyl-4-((S)-1-(quinoxalin-6-yl)ethyl)piperazin-1-yl)-4-methyl-5-oxo-3-(trifluoromethyl)-4,5-dihydro-1H-pyrazolo[4,3-b]pyridin-1-yl)acetonitrile or 2-(7-((2S,5R)-2,5-dimethyl-4-((R)-1-(quinoxalin-6-yl)ethyl)piperazin-1-yl)-4-methyl-5-oxo-3-(trifluoromethyl)-4,5-dihydro-1H-pyrazolo[4,3-b]pyridin-1-yl)acetonitrile]
- IC50 (DGKζ): > 10000 nM
- IC50 (DGKα): > 10000 nM

SMILES: CC(c1ccc2ncc(Cl)nc2c1)N1C[C@H](C)N(c2cc(=O)n(C)c3cn(CC#N)nc23)C[C@H]1C (stereo partly drawn) [Compound A280, 2-(7-((2S,5R)-4-(1-(3-chloroquinoxalin-6-yl)ethyl)-2,5-dimethylpiperazin-1-yl)-4-methyl-5-oxo-4,5-dihydro-2H-pyrazolo[4,3-b]pyridin-2-yl)acetonitrile]
- IC50 (DGKζ): 34 nM
- IC50 (DGKα): 26000 nM

SMILES: CC[C@@H]1CN(c2cc(=O)[nH]c3c(C)n(CC#N)nc23)[C@@H](C)CN1C(C)c1ccc2nccnc2c1 (stereo partly drawn) [Compound A264]
- IC50 (DGKζ): 215 nM
- IC50 (DGKα): > 10000 nM

SMILES: CC[C@H]1CN(C(C)c2cccc(CO)c2)[C@H](CC)CN1c1cc(=O)n(C)c2cn(CC#N)nc12 (stereo partly drawn) [Compound A121b]
- IC50 (DGKζ): > 10000 nM
- IC50 (DGKα): 4160 nM

SMILES: CC[C@H]1CN(C(C)c2ccc(F)cc2OC(F)F)[C@H](CC)CN1c1cc(=O)n(C)c2cn(CC#N)nc12 (single isomer, unassigned) [Compound A171a]
- IC50 (DGKζ): 65 nM
- IC50 (DGKα): 8340 nM

SMILES: C[C@H]1CN([C@@H](C)c2ccc3c(c2)OC(C)(C)CO3)[C@@H](C)CN1c1cc(=O)n(C)c2cn(CC#N)nc12 [Compound A46a]
- IC50 (DGKζ): > 10000 nM
- IC50 (DGKα): > 10000 nM

SMILES: CC[C@H]1CN(C(C)c2ccc(F)cc2OC)[C@H](CC)CN1c1cc(=O)n(C)c2cn(CC#N)nc12 (single isomer, unassigned) [Compound A71b]
- IC50 (DGKζ): 130 nM
- IC50 (DGKα): 40000 nM

SMILES: CC(c1ccc2nccnc2c1)N1CCN(c2cc(=O)n(C)c3cn(CC#N)nc23)CC1CO (stereo not drawn) [Compound A184]
- IC50 (DGKζ): 6010 nM
- IC50 (DGKα): > 10000 nM

SMILES: Cc1c2c(nn1CC#N)c(N1C[C@@H](C)N(C(C)c3ccc4nccnc4c3)C[C@@H]1C)cc(=O)n2C (stereo partly drawn) [Compound A209, 2-(7-((2S,5R)-2,5-dimethyl-4-(1-(quinoxalin-6-yl)ethyl)piperazin-1-yl)-3,4-dimethyl-5-oxo-4,5-dihydro-2H-pyrazolo[4,3-b]pyridin-2-yl)acetonitrile]
- IC50 (DGKζ): 50 nM
- IC50 (DGKα): 21600 nM

SMILES: CC[C@H]1CN(C(C)c2ccc3nccnc3c2)[C@H](CC)CN1c1cc(=O)n(CC(F)F)c2cn(CC#N)nc12 (single isomer, unassigned) [Compound A139a]
- IC50 (DGKζ): 112 nM
- IC50 (DGKα): > 10000 nM

SMILES: CC[C@H]1CN(C(C)c2ccc(C)nc2)[C@H](CC)CN1c1cc(=O)n(C)c2cn(CC#N)nc12 (single isomer, unassigned) [Compound A349a]
- IC50 (DGKζ): 462 nM
- IC50 (DGKα): 490 nM

SMILES: CCC(c1ccc(F)cc1C(F)(F)F)N1C[C@H](C)N(c2cc(=O)n(C)c3cn(CC#N)nc23)C[C@H]1C (stereo partly drawn) [Compound A256]
- IC50 (DGKζ): 315 nM
- IC50 (DGKα): > 10000 nM

SMILES: COCC[C@H]1CN(C(C)c2ccc3nccnc3c2)[C@H](C)CN1c1cc(=O)n(C)c2cn(CC#N)nc12 (stereo partly drawn) [Compound A164, 2-(7-((2S,5R)-2-(2-methoxyethyl)-5-methyl-4-(1-(quinoxalin-6-yl)ethyl)piperazin-1-yl)-4-methyl-5-oxo-4,5-dihydro-2H-pyrazolo[4,3-b]pyridin-2-yl)acetonitrile]
- IC50 (DGKζ): 72 nM
- IC50 (DGKα): 8970 nM

SMILES: CC[C@H]1CN(C(C)c2ccc(F)nc2)[C@H](CC)CN1c1cc(=O)n(C)c2cn(CC#N)nc12 (single isomer, unassigned) [Compound A353a]
- IC50 (DGKζ): 190 nM
- IC50 (DGKα): 32 nM

SMILES: CC(c1cc2ccccc2cn1)N1C[C@H](C)N(c2cc(=O)n(C)c3cn(CC#N)nc23)C[C@H]1C (stereo partly drawn) [Compound A305]
- IC50 (DGKζ): 1190 nM
- IC50 (DGKα): 1490 nM

SMILES: CC[C@H]1CN(C(C)c2ccc(C(F)(F)F)cc2F)[C@H](CC)CN1c1cc(=O)n(C)c2cn(CC#N)nc12 (stereo partly drawn) [Compound A73, 2-(7-((2S,5R)-2,5-diethyl-4-(1-(2-fluoro-4-(trifluoromethyl)phenyl)ethyl)piperazin-1-yl)-4-methyl-5-oxo-4,5-dihydro-2H-pyrazolo[4,3-b]pyridin-2-yl)acetonitrile]
- IC50 (DGKζ): 630 nM
- IC50 (DGKα): 630 nM

SMILES: CC[C@H]1CN(C(C)c2ccncc2C(F)(F)F)[C@H](CC)CN1c1cc(=O)n(C)c2cn(CC#N)nc12 (stereo partly drawn) [Compound A118]
- IC50 (DGKζ): 185 nM
- IC50 (DGKα): > 150000 nM

SMILES: CC(c1ccc2cccnc2c1)N1C[C@H](C)N(c2cc(=O)n(C)c3cn(CC#N)nc23)C[C@H]1C (stereo partly drawn) [Compound A40]
- IC50 (DGKζ): 270 nM
- IC50 (DGKα): 2300 nM

SMILES: CC[C@H]1CN(C(C)c2c(C)cccc2C(F)(F)F)[C@H](CC)CN1c1cc(=O)n(C)c2cn(CC#N)nc12 (stereo partly drawn) [Compound A117]
- IC50 (DGKζ): 3870 nM
- IC50 (DGKα): > 10000 nM

SMILES: CC[C@H]1CN(C(C)c2cnccn2)[C@H](CC)CN1c1cc(=O)n(C)c2cn(CC#N)nc12 (stereo partly drawn) [Compound A88]
- IC50 (DGKζ): 9440 nM
- IC50 (DGKα): 118 nM
